Results reported in patent US10759766B2, “Certain chemical entities, compositions, and methods” (NeuPharma, Inc., priority 2011, dated 2020).

Tests used:
A549 cells = assay: Inhibition of cancer cell growth, MTT assay, A549; format: cell-based; settings: Homo sapiens, A549, 72 h exposure
Protocol: (§1) Inhibition of cell growth by compounds was measured using MTT assay (Mosmann, T., Journal of Immunological Methods, 1983, 65, 55-63). Tumor cell lines were purchased from ATCC (American Type Culture Collection, Manassas, Va.). All cell lines were maintained in RPMI 1640 (Hyclone) supplemented with 10% fetal bovine serum (FBS, Hyclone), glutamine (2 mM, Hyclone), and antibiotics (penicillin 100 U/mL and streptomycin 50 μg/mL) at 37° C. in a humidified atmosphere of 5% CO2 in air. Taxol (as a positive control, Sigma) and compounds were dissolved in DMSO (Sigma), and the final concentration of DMSO in the medium was 1%. Tumor cells were plated in 96-well plates at densities of about 4000 cells/well of a 96-well plate and allowed to adhere/grow for 24 h. They were then treated with various concentrations of drug for 72 h. 3-(4,5-Dimethylthiazol-2-yl)-2,5-diphenyltetrazolium bromide (MTT, Sigma) was used to determine the number of viable cells at the time of compound addition and the number of cells remaining after 72 h compound exposure. The number of cells remaining after 72 h was compared to the number of viable cells at the time of compound addition by measuring the absorbance at 570 nm, allowing for the calculation of growth inhibition.
(§2) All concentrations of compounds were tested in triplicate and controls were averaged over 4 wells. IC50 was calculated by plotting the concentration of compound vs the percentage of inhibition in treated wells using GraphPad Prism 5. […] The scale utilized in Table 6 is as follows: +++ less than 1000 nM; ++ between 1000 nM and 5000 nM; and + greater than 5000 nM. The scale utilized in Table 7 is as follows: +++ less than 2000 nM; ++ between 2000 nM and 5000 nM; and + greater than 5000 nM.

A375 cells = assay: Inhibition of cancer cell growth, MTT assay, A375; format: cell-based; settings: Homo sapiens, A-375, 72 h exposure
Protocol: as §1, §2

BRAF V600E = BRAF V600E (Homo sapiens (Human), UniProt P15056, V600E); assay: Z′-LYTE kinase inhibition assay (Invitrogen), BRAF V600E; format: biochemical; settings: Z′-LYTE method; for inhibition at 1 µM: 1 μM compound, read-out: % inhibition at 1 μM against BRAF V600E
BRAF V600E, sequence (P15056 whole entry V600E): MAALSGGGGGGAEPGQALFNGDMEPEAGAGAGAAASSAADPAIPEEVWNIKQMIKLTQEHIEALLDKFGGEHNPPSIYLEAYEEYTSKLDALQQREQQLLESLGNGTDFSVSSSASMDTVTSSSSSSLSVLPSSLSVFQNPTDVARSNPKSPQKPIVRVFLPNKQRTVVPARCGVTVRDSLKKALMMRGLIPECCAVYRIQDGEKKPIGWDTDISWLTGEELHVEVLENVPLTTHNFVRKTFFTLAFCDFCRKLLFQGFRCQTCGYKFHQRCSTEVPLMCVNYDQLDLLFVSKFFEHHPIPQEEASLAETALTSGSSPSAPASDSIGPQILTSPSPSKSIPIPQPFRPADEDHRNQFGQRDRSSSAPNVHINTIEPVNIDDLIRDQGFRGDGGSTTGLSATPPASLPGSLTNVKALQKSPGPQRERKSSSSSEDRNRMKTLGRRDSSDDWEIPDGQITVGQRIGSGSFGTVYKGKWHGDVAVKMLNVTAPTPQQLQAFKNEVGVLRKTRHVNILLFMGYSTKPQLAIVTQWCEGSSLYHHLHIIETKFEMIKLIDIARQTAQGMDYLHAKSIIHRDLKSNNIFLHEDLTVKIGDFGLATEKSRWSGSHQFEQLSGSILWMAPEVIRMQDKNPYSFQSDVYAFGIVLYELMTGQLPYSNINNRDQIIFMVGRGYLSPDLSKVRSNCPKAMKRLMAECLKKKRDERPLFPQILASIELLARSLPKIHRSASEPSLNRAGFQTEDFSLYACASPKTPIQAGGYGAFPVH
Protocol: (§3) Inhibitory activities Inhibitory activities of compounds against BRAF, and BRAF V600E were measured by Invitrogen using Z′-LYTE® Method as briefly described in the following. 4× Test compounds are dissolved in 1% DMSO. […] ATP solutions are diluted to a 4×ATP working concentration in Kinase Buffer (50 mM HEPES pH 7.5, 0.01% BRIJ-35, 10 mM MgCl2, 1 mM EGTA). Reaction started by 30-second shaking of mixture consisting of 2.5 μL 4× test compound, […] and 2.5 μL 4×ATP Solution on Bar-coded Corning, low volume NBS, black 384-well plate (Corning Cat. #3676). Then the mixture was incubated for 60-minute at room temperature for the kinase reaction, followed by addition of 5 μL of a 1:1024 dilution of development reagent A and 30-second plate shake. The mixture was then incubated for another 60-minute at room temperature for development reaction. Fluorescence was read by plate reader. IC50 was calculated by plotting the concentration of compound vs the percentage of inhibition in treated wells using GraphPad Prism 5.
The scale utilized in Table 3 is as follows: +++ less than 100 nM; and ++ greater than 100 nM.

KDR (VEGFR2) = KDR (VEGFR2) (Homo sapiens (Human), UniProt P35968); assay: Z′-LYTE kinase inhibition assay (Invitrogen), KDR; format: biochemical; settings: Z′-LYTE method; for inhibition at 1 µM: 1 μM compound, read-out: % inhibition at 1 μM against KDR; for IC50: read-out: IC50 against KDR
KDR (VEGFR2), sequence (P35968 20-1356): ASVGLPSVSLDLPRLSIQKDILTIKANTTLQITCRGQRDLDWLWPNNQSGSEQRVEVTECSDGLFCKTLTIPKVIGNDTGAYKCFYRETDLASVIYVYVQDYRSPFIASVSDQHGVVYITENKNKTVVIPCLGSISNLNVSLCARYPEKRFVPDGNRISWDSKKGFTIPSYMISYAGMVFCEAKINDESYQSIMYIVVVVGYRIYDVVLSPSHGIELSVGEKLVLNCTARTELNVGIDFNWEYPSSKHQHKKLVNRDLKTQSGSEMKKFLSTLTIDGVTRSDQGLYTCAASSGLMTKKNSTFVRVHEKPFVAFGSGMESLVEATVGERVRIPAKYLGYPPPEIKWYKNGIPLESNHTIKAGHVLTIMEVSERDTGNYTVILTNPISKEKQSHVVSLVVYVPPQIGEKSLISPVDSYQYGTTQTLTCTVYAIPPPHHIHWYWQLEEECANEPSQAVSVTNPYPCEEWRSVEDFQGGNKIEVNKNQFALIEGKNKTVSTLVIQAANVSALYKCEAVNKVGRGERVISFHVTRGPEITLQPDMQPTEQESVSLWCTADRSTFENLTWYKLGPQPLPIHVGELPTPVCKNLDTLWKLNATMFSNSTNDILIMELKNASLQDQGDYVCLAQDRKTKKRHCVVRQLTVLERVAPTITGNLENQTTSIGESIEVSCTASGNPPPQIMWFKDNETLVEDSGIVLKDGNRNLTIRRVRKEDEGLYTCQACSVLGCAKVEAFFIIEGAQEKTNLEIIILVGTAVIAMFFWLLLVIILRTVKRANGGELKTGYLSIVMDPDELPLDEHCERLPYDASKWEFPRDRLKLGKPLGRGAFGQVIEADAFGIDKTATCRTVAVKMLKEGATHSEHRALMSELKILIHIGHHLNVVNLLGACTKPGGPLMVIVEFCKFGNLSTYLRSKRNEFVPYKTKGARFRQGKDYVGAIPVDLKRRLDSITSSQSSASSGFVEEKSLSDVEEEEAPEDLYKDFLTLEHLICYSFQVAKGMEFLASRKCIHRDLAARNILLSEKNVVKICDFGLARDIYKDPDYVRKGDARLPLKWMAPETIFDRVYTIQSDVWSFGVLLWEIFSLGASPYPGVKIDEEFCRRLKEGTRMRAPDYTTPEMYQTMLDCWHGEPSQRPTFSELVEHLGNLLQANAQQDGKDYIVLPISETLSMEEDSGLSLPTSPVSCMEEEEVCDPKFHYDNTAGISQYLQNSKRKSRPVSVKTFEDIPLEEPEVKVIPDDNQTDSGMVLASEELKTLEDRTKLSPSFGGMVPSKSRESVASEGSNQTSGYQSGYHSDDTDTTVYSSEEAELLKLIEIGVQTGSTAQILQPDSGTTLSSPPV
Protocol: as §3
Inhibitory activities of compounds against KDR (VEGFR2) were also measured by Invitrogen using Z′-LYTE® Method as described above with the following modification. The 2× KDR (VEGFR2)/Tyr 01 mixture is prepared in 50 mM HEPES pH 7.5, 0.01% BRIJ-35, 10 mM MgCl2, 1 mM EGTA. The final 10 μL Kinase Reaction consists of 0.5-11.7 ng KDR (VEGFR2) and 2 μM Tyr 01 in 50 mM HEPES pH 7.5, 0.01% BRIJ-35, 10 mM MgCl2, 1 mM EGTA. After the 1 hour Kinase Reaction incubation, 5 μL of a 1:256 dilution of Development Reagent B is added.
The scale utilized in Table 5 is as follows: +++ less than 100 nM; and ++ greater than 100 nM

Row | SMILES | IC50 (A549 cells) | IC50 (A375 cells) | inhibition at 1 µM (BRAF V600E) | inhibition at 1 µM (KDR (VEGFR2)) | IC50 (BRAF V600E; read-out: IC50 against BRAF V600E) | IC50 (KDR (VEGFR2))
1 | O=C(Nc1cc(F)cc(C(=O)c2ccc3ncc(N4CCOCC4)nc3c2)c1)Nc1ccc(Cl)c(Cl)c1 [Compound C050, 1-(3,4-dichlorophenyl)-3-(3-fluoro-5-(3-morpholinoquinoxaline-6-carbonyl)phenyl)urea] | < 2 µM | < 1 µM | > 89% | 70 to 89% |  | 
2 | O=C(Nc1cccc(F)c1)Nc1cccc(C(=O)c2ccc3ncc(N4CCCC4)nc3c2)c1 [Compound C019, 1-(3-fluorophenyl)-3-(3-(3-(pyrrolidin-1-yl)quinoxaline-6-carbonyl)phenyl)urea] | > 5 µM | > 5 µM | > 89% | > 89% | < 100 nM | < 100 nM
3 | NCCNc1cnc2ccc(C(=O)c3cc(NC(=O)Nc4ccc(F)c(F)c4)ccc3F)cc2n1 [Compound C091, 1-(3-(3-((2-aminoethyl)amino)quinoxaline-6-carbonyl)-4-fluorophenyl)-3-(3,4-difluorophenyl)urea] | > 5 µM | 1 to 5 µM | > 89% | > 89% |  | 
4 | O=C(Nc1ccc(Cl)cc1)Nc1cc(F)cc(C(=O)c2ccc3ncc(N4CCOCC4)nc3c2)c1 [Compound C045, 1-(4-chlorophenyl)-3-(3-fluoro-5-(3-morpholinoquinoxaline-6-carbonyl)phenyl)urea] | 2 to 5 µM | < 1 µM | > 89% | < 70% |  | 
5 | NCCNc1cnc2ccc(C(=O)c3cc(NC(=O)Nc4cccc(F)c4)ccc3F)cc2n1 [Compound C088, 1-(3-(3-((2-aminoethyl)amino)quinoxaline-6-carbonyl)-4-fluorophenyl)-3-(3-fluorophenyl)urea] | > 5 µM | 1 to 5 µM | > 89% | > 89% |  | 
6 | O=C(Nc1ccc(F)c(C(=O)c2ccc3nccnc3c2)c1F)c1cccc(C(F)(F)F)c1 [Compound C114, N-(2,4-difluoro-3-(quinoxaline-6-carbonyl)phenyl)-3-(trifluoromethyl)benzamide] | > 5 µM |  | 70 to 89% | 70 to 89% |  | 
7 | O=C(Nc1cc(F)cc(C(=O)c2ccc3ncc(N4CCOCC4)nc3c2)c1)c1ccc(Cl)c(C(F)(F)F)c1 [Compound C135, 4-chloro-N-(3-fluoro-5-(3-morpholinoquinoxaline-6-carbonyl)phenyl)-3-(trifluoromethyl)benzamide] | > 5 µM | 1 to 5 µM | 70 to 89% | < 70% |  | 
8 | O=C(Nc1cccc(C(=O)c2ccc3ncc(N4CCCC4)nc3c2)c1)c1ccc(Cl)c(C(F)(F)F)c1 [Compound C123, 4-chloro-N-(3-(3-(pyrrolidin-1-yl)quinoxaline-6-carbonyl)phenyl)-3-(trifluoromethyl)benzamide] | > 5 µM | > 5 µM | 70 to 89% | 70 to 89% |  | 
9 | O=C(Nc1cccc(Cl)c1)Nc1ccc(F)c(C(=O)c2ccc3nccnc3c2)c1 [Compound C072, 1-(3-chlorophenyl)-3-(4-fluoro-3-(quinoxaline-6-carbonyl)phenyl)urea] | > 5 µM | 1 to 5 µM | > 89% | < 70% |  | 
10 | O=C(Nc1cc(F)cc(C(=O)c2ccc3nccnc3c2)c1)Nc1ccc(F)c(F)c1 [Compound C065, 1-(3,4-difluorophenyl)-3-(3-fluoro-5-(quinoxaline-6-carbonyl)phenyl)urea] | > 5 µM | > 5 µM | > 89% | < 70% |  | 
11 | O=C(Nc1ccc(F)c(F)c1)Nc1ccc(F)c(C(=O)c2ccc3nccnc3c2)c1 [Compound C071, 1-(3,4-difluorophenyl)-3-(4-fluoro-3-(quinoxaline-6-carbonyl)phenyl)urea] | > 5 µM | 1 to 5 µM | > 89% | < 70% |  | 
12 | O=C(Nc1ccc(F)c(F)c1)Nc1ccc(F)c(C(=O)c2ccc3ncc(N4CCNCC4)nc3c2)c1 [Compound C102, 1-(3,4-difluorophenyl)-3-(4-fluoro-3-(3-(piperazin-1-yl)quinoxaline-6-carbonyl)phenyl)urea] | 2 to 5 µM |  | > 89% | > 89% |  | < 100 nM
13 | O=C(Nc1cc(F)cc(F)c1)Nc1ccc(F)c(C(=O)c2ccc3ncc(N4CCNCC4)nc3c2)c1 [Compound C101, 1-(3,5-difluorophenyl)-3-(4-fluoro-3-(3-(piperazin-1-yl)quinoxaline-6-carbonyl)phenyl)urea] | 2 to 5 µM |  | > 89% | 70 to 89% |  | 
14 | O=C(Nc1ccc(F)cc1)Nc1cc(F)c(F)c(C(=O)c2ccc3ncc(N4CCOCC4)nc3c2)c1 [Compound C095, 1-(3,4-difluoro-5-(3-morpholinoquinoxaline-6-carbonyl)phenyl)-3-(4-fluorophenyl)urea] | > 5 µM |  | > 89% | 70 to 89% |  | 
15 | O=C(Nc1cc(F)cc(F)c1)Nc1ccc(F)c(C(=O)c2ccc3ncc(N4CCOCC4)nc3c2)c1 [Compound C094, 1-(3,5-difluorophenyl)-3-(4-fluoro-3-(3-morphlinoquinoxaline-6-carbonyl)phenyl)urea] | > 5 µM |  | > 89% | < 70% |  | 
16 | O=C(Nc1ccc(F)c(F)c1)Nc1cc(F)c(F)c(C(=O)c2ccc3ncc(N4CCOCC4)nc3c2)c1 [Compound C096] | > 5 µM |  | > 89% | < 70% |  | 
17 | O=C(Nc1cccc(F)c1)Nc1cc(F)c(F)c(C(=O)c2ccc3ncc(N4CCNCC4)nc3c2)c1 [Compound C098] | 2 to 5 µM |  | > 89% | 70 to 89% |  | 
18 | O=C(Nc1ccc(F)c(F)c1)Nc1cc(F)c(F)c(C(=O)c2ccc3ncc(N4CCNCC4)nc3c2)c1 [Compound C103, 1-(3,4-difluoro-5-(3-(piperazin-1-yl)quinoxaline-6-carbonyl)phenyl)-3-(3,4-difluorophenyl)urea] | 2 to 5 µM |  |  |  |  | 
19 | O=C(Nc1cc(F)cc(F)c1)Nc1cc(F)cc(C(=O)c2ccc3ncc(N4CCOCC4)nc3c2)c1 [Compound C093] | 2 to 5 µM |  | > 89% | < 70% |  | 
20 | O=C(Nc1cc(F)cc(F)c1)Nc1cc(F)c(F)c(C(=O)c2ccc3ncc(N4CCNCC4)nc3c2)c1 [Compound C104, 1-(3,4-difluoro-5-(3-(piperazin-1-yl)quinoxaline-6-carbonyl)phenyl)-3-(3,5-difluorophenyl)urea] | > 5 µM |  |  |  |  | 
21 | O=C(Nc1cc(F)cc(F)c1)Nc1cc(F)c(F)c(C(=O)c2ccc3ncc(N4CCOCC4)nc3c2)c1 [Compound C097] | 2 to 5 µM |  | > 89% | < 70% |  | 
22 | O=C(Nc1ccc(F)cc1)Nc1cc(F)c(F)c(C(=O)c2ccc3ncc(N4CCNCC4)nc3c2)c1 [Compound C099, 1-(3,4-difluoro-5-(3-(piperazin-1-yl)quinoxaline-6-carbonyl)phenyl)-3-(4-fluorophenyl)urea] | < 2 µM |  | > 89% | 70 to 89% |  | > 100 nM
